Data reported in ChEMBL document CHEMBL5131547, “Novel Halomethylketone Azadipeptides for Treating COVID-19” (ACS Med Chem Lett, 2022).

Target: Replicase polyprotein 1ab (Severe acute respiratory syndrome coronavirus 2, UniProt P0DTD1)
Experiment: Inhibition of recombinant SARS-CoV-2 3CLpro expressed in Escherichia coli BL21 DE3 using FAM-KTSAVLQSGFRKMEK-TAMRA fluorogenic peptide as substrate preincubated for 1 hr followed by substrate addition measured after 30 mins by FRET assay

In the case of `CC(C)C[C@H](NC(=O)OCc1ccccc1)C(=O)NN(CC1CCCNC1=O)C(=O)CCl` (some centres not stated), the IC50 is reported as 5 nM.

Compound `CC(C)C[C@H](NC(=O)c1cc2ccccc2[nH]1)C(=O)NN(C[C@H]1CCNC1=O)C(=O)CCl` has an IC50 of 3 nM.
